# US8946203B2, “Benzodioxane inhibitors of leukotriene production” (Boehringer Ingelheim International GmbH, priority 2012, dated 2015)
# Counter-ions that a name gives are not always drawn.
# System: synthesis of LTB4 in human whole blood
# Test: human whole blood (HWB) assay, LTB4 production inhibition after calcimycin stimulation
# Assay type: cell-based
# Conditions: heparinized human whole blood, calcimycin 20 μM, plasma LTB4 by HTRF
# Protocol: The compounds of the invention are additionally tested in a human whole blood (HWB) assay to determine their ability to inhibit the synthesis of LTB4 in a cellular system. Compounds are combined with heparinized human whole blood and incubated for 15 minutes at 37° C. Calcimycin (20 μM final, prepared in phosphate-buffered saline, pH 7.4) is then added and the mixture is incubated for another 30 minutes at 37° C. The samples are centrifuged for 5 min at low speed (1500×g) and the plasma layer is removed. Plasma LTB4 concentrations are then measured using an antibody-based homogenous time-resolved fluorescence method (CisBio, Bedford, Mass.). In general, the preferred potency range (IC50) of compounds in the HWB assay is between 10 nM to 10 μM, the more preferred potency range is 10 nM to 1 μM, and the most preferred potency range is 10 nM to 100 nM.
row,SMILES,IC50
1,"c1cnc2c(c1)OCC(c1ccc(CN3CCOCC3)cc1)O2 (racemic) [Example 18, 3-[4-(morpholin-4-ylmethyl)phenyl]-2,3-dihydro[1,4]dioxino[2,3-b]pyridine]",176 nM
2,"CNC(=O)C1CCN(Cc2ccc(C3COc4ccccc4O3)cc2)CC1 (racemic) [Example 25, 1-[4-(2,3-Dihydro-benzo[1,4]dioxin-2-yl)-benzyl]-piperidine-4-carboxylic acid methylamide]",294 nM

# The remaining lines, values ahead:
row,IC50,SMILES
1,179 nM,"c1ccc2c(c1)OCC(c1ccc(CN3CCCC3)cc1)O2 (racemic) [Example 1, 1-[4-(2,3-dihydro-1,4-benzodioxin-2-yl)benzyl]pyrrolidine]"
2,285 nM,"O[C@H]1CCN(Cc2ccc(C3COc4ccccc4O3)cc2)C1 (mixture of isomers) [Example 9, (3S)-1-[4-(2,3-dihydro-1,4-benzodioxin-2-yl)benzyl]pyrrolidin-3-ol]"
3,352 nM,"O=C1CCCN1CC1CCCN(Cc2ccc(C3COc4ccccc4O3)cc2)C1 (racemic) [Example 10, 1-({1-[4-(2,3-dihydro-1,4-benzodioxin-2-yl)benzyl]piperidin-3-yl}methyl)pyrrolidin-2-one]"

# Target: T1, human LTA4 hydrolase (Homo sapiens, UniProt P09960)
# T1 sequence (P09960 1-611): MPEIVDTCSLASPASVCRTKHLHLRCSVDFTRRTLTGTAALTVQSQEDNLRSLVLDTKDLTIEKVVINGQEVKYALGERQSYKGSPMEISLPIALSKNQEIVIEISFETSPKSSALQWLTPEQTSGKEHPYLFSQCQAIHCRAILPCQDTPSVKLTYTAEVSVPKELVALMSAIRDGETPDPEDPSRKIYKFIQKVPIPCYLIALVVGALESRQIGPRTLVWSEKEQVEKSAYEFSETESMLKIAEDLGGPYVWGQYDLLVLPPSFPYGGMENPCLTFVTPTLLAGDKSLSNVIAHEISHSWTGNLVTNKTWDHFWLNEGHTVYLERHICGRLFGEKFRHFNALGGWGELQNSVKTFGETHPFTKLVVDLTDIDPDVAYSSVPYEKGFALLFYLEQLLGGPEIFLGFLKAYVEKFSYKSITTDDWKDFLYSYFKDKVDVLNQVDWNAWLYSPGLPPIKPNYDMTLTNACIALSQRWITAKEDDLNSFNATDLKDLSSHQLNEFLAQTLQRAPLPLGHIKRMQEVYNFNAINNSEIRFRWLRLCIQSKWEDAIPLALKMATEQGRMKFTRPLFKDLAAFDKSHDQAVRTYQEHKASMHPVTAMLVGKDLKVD
# Test: LTA4H Enzyme assay (cleavage of Arg-AMC, fluorescence)
# Assay type: biochemical
# Conditions: LTA4H Enzyme 1 nM, Arg-AMC substrate 50 μM, room temperature 1 h, fluorescence; read-out: IC50 values of LTA4H Enzyme assay
# Procedure, shortened: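 Peptidase activity of human LTA4H (1 nM final) on Arg-AMC (50 μM final), with compound, 1 h at room temperature. Buffer: 50 mM Tris-HCl pH 7.5, 100 mM KCl, 0.5% BSA.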
row,SMILES,IC50
1,"c1cnc2c(c1)OCC(c1ccc(CN3CCOCC3)cc1)O2 (racemic) [Example 18, 3-[4-(morpholin-4-ylmethyl)phenyl]-2,3-dihydro[1,4]dioxino[2,3-b]pyridine]",1.14 nM
2,"CNC(=O)C1CCN(Cc2ccc(C3COc4ccccc4O3)cc2)CC1 (racemic) [Example 25, 1-[4-(2,3-Dihydro-benzo[1,4]dioxin-2-yl)-benzyl]-piperidine-4-carboxylic acid methylamide]",0.76 nM
3,"Fc1ccc2c(c1)OC(c1ccc(CN3CCCC3)cc1)CO2 (centres unmarked) [Example 203, 1-[4-(7-Fluoro-2,3-dihydro-benzo[1,4]dioxin-2-yl)-benzyl]-pyrrolidine]",2.94 nM
4,"c1cnc2c(c1)OC[C@@H](c1ccc(CN3CCOCC3)cc1)O2 [Example 205, (R)-3-(4-Morpholin-4-ylmethyl-phenyl)-2,3-dihydro-[1,4]dioxino[2,3-b]pyridine]",27.5 nM
5,"NC(=O)C1CCN(Cc2ccc([C@H]3COc4cccnc4O3)cc2)CC1 [Example 206, 1-{4-[(3S)-2,3-dihydro[1,4]dioxino[2,3-b]pyridin-3-yl]benzyl}piperidine-4-carboxamide]",0.19 nM
6,"NC(=O)C1CCN(Cc2ccc([C@@H]3COc4cccnc4O3)cc2)CC1 [Example 207, 1-{4-[(3R)-2,3-dihydro[1,4]dioxino[2,3-b]pyridin-3-yl]benzyl}piperidine-4-carboxamide]",0.86 nM
7,"O=C1CCCN1Cc1ccc(C2COc3cccnc3O2)cc1 (centres unmarked) [Example 208, 11-[4-(2,3-dihydro-[1,4]dioxino[2,3-b]pyridin-3-yl)-benzyl]-pyrrolidin-2-one]",21.4 nM
8,"O=C1OCCN1Cc1ccc(C2COc3cccnc3O2)cc1 (centres unmarked) [Example 209, 3-[4-(2,3-dihydro[1,4]dioxino[2,3-b]pyridin-3-yl)benzyl]-1,3-oxazolidin-2-one]",12.4 nM
9,"NCc1ccc(C2COc3cccnc3O2)cc1 (centres unmarked) [Example 210, 4-(2,3-Dihydro-[1,4]dioxino[2,3-b]pyridin-3-yl)-benzylamine]",19 nM
10,"CC1(C(=O)O)CCN(Cc2ccc([C@H]3COc4ccccc4O3)cc2)CC1 [Example 211, 1-[(S)-4-(2,3-Dihydro-benzo[1,4]dioxin-2-yl)-benzyl]-4-methyl-piperidine-4-carboxylic acid]",0.69 nM
11,"c1ccc2c(c1)OC[C@H](c1ccc(CN3CCC(c4nnn[nH]4)CC3)cc1)O2 [Example 216, 1-[(S)-4-(2,3-Dihydro-benzo[1,4]dioxin-2-yl)-benzyl]-4-(1H-tetrazol-5-yl)-piperidine]",0.13 nM
12,"NC1CCN(Cc2ccc([C@H]3COc4ccccc4O3)cc2)CC1 [Example 217, 1-[(S)-4-(2,3-Dihydro-benzo[1,4]dioxin-2-yl)-benzyl]-piperidin-4-ylamine]",2.28 nM
13,"CC(C)(O)C(=O)NC1CCN(Cc2ccc([C@H]3COc4cccnc4O3)cc2)CC1 [Example 221, N-(1-{4-[(3S)-2,3-dihydro[1,4]dioxino[2,3-b]pyridin-4-yl]benzyl}piperidin-4-yl)-2-hydroxy-2-methylpropanamide]",0.16 nM
14,"O=C(CO)NC1CCN(Cc2ccc([C@H]3COc4cccnc4O3)cc2)CC1 [Example 222, N-(1-{4-[(3S)-2,3-dihydro[1,4]dioxino[2,3-b]pyridin-3-yl]benzyl}piperidin-4-yl)-2-hydroxyacetamide]",0.14 nM
15,"O=C(NC1CCN(Cc2ccc([C@H]3COc4cccnc4O3)cc2)CC1)C1(O)CC1 [Example 223, N-(1-{4-[(3S)-2,3-dihydro[1,4]dioxino[2,3-b]pyridin-3-yl]benzyl}piperidin-4-yl)-1-hydroxycyclopropanecarboxamide]",0.16 nM
16,"O=S1(=O)CCCN1C1CCN(Cc2ccc([C@H]3COc4ccccc4O3)cc2)CC1 [Example 224, 1-[(S)-4-(2,3-Dihydro-benzo[1,4]dioxin-2-yl)-benzyl]-4-(1,1-dioxo-1λ^6-isothiazolidin-2-yl)-piperidine]",0.13 nM
17,"CC(c1ccc([C@H]2COc3ccccc3O2)cc1)N1CCCC1 (stereo partly drawn) [Example 225, 1-{1-[(S)-4-(2,3-dihydro-benzo[1,4]dioxin-2-yl)-phenyl]-ethyl}-pyrrolidine]",5.3 nM
18,"CC(c1ccc([C@H]2COc3ccccc3O2)cc1)N1CCOCC1 (stereo partly drawn) [Example 226, 4-(1-{4-[(2S)-2,3-dihydro-1,4-benzodioxin-2-yl]phenyl}ethyl)morpholine]",43 nM
19,"CC1(C(=O)O)CCN(Cc2ccc([C@H]3COc4cccnc4O3)cc2)CC1 [Example 228, 1-[(S)-4-(2,3-Dihydro-[1,4]dioxino[2,3-b]pyridin-3-yl)-benzyl]-4-methyl-piperidine-4-carboxylic acid formate salt]",0.61 nM
20,"CC(C)(C(=O)O)C1CCN(Cc2ccc([C@H]3COc4cccnc4O3)cc2)CC1 [Example 230, 2-{1-[(S)-4-(2,3-Dihydro-[1,4]dioxino[2,3-b]pyridin-3-yl)-benzyl]-piperidin-4-yl}-2-methyl-propionic acid formate salt]",1.24 nM

# Results, then the compound that gave them:
row,IC50,SMILES
1,0.38 nM,"c1ccc2c(c1)OCC(c1ccc(CN3CCCC3)cc1)O2 (racemic) [Example 1, 1-[4-(2,3-dihydro-1,4-benzodioxin-2-yl)benzyl]pyrrolidine]"
2,1.49 nM,"O[C@H]1CCN(Cc2ccc(C3COc4ccccc4O3)cc2)C1 (mixture of isomers) [Example 9, (3S)-1-[4-(2,3-dihydro-1,4-benzodioxin-2-yl)benzyl]pyrrolidin-3-ol]"
3,0.75 nM,"O=C1CCCN1CC1CCCN(Cc2ccc(C3COc4ccccc4O3)cc2)C1 (racemic) [Example 10, 1-({1-[4-(2,3-dihydro-1,4-benzodioxin-2-yl)benzyl]piperidin-3-yl}methyl)pyrrolidin-2-one]"
4,0.49 nM,C[C@H]1CN(Cc2ccc([C@H]3COc4ccccc4O3)cc2)CC[C@H]1C(=O)O [Example 212]
5,0.81 nM,"O=C(O)C1(F)CCN(Cc2ccc([C@H]3COc4ccccc4O3)cc2)CC1 [Example 213, 1-{4-[(2S)-2,3-dihydro-1,4-benzodioxin-2-yl]benzyl}-4-fluoropiperidine-4-carboxylic acid]"
6,0.7 nM,"O=C(O)[C@H]1CCN(Cc2ccc([C@H]3COc4ccccc4O3)cc2)C1 [Example 215, (3S)-1-{4-[(2S)-2,3-dihydro-1,4-benzodioxin-2-yl]benzyl}pyrrolidine-3-carboxylic acid]"
7,0.37 nM,"O=C(CO)NC1CCN(Cc2ccc([C@H]3COc4ccccc4O3)cc2)CC1 [Example 218, N-{1-[(S)-4-(2,3-Dihydro-benzo[1,4]dioxin-2-yl)-benzyl]-piperidin-4-yl}-2-hydroxy-acetamide]"
8,0.29 nM,"O=C(O)c1ccc(CC2CCN(Cc3ccc([C@H]4COc5ccccc5O4)cc3)CC2)cc1 [Example 231, 4-{1-[(S)-4-(2,3-Dihydro-benzo[1,4]dioxin-2-yl)-benzyl]-piperidin-4-ylmethyl}-benzoic acid]"
9,2.75 nM,"O=C(O)c1ccc2c(c1)CN(Cc1ccc([C@H]3COc4ccccc4O3)cc1)CC2 [Example 232, 2-{4-[(2S)-2,3-dihydro-1,4-benzodioxin-2-yl]benzyl}-1,2,3,4-tetrahydroisoquinoline-7-carboxylic acid]"
10,0.22 nM,"O=C(O)c1ccc(C2CCN(Cc3ccc([C@H]4COc5ccccc5O4)cc3)CC2)cc1 [Example 233, 4-(1-{4-[(2S)-2,3-dihydro-1,4-benzodioxin-2-yl]benzyl}piperidin-4-yl)benzoic acid]"
11,0.08 nM,"O=C(O)c1ccc(C2CCN(Cc3ccc([C@H]4COc5cccnc5O4)cc3)CC2)cc1 [Example 235, 4-(1-{4-[(3S)-2,3-dihydro[1,4]dioxino[2,3-b]pyridin-3-yl]benzyl}piperidin-4-yl)benzoic acid]"
12,0.55 nM,"CCN(Cc1ccc([C@H]2COc3ccccc3O2)cc1)Cc1cccc(C(=O)O)c1 [Example 238, 3-{[{4-[(2S)-2,3-dihydro-1,4-benzodioxin-2-yl]benzyl}(ethyl)amino]methyl}benzoic acid]"
13,0.15 nM,"O=C(O)c1cccc(CN2CCN(Cc3ccc([C@H]4COc5ccccc5O4)cc3)CC2)c1 [Example 239, 3-{4-[(S)-4-(2,3-Dihydro-benzo[1,4]dioxin-2-yl)-benzyl]-piperazin-1-ylmethyl}-benzoic acid]"
